Reference: US8546380B2, “Aminodihydrothiazine derivatives” (Shionogi & Co., Ltd., priority 2005, dated 2013)
Read-outs that look alike come from different tables or passages of the source.

Biological target: recombinant human BACE-1 protein (Homo sapiens (Human), UniProt P56817)
Assay: Measurement of Inhibition of β-Secretase Activity
Type: biochemical
Conditions: 3 h at 30° C., pH5.0, read-out: IC50 value
Procedure: Zero point five μL of the test compounds (dissolved in N,N′-dimethylsulfoxide) were incubated with 48.5 μL of the fluorescence-quenched peptide substrate solution (Biotin-XSEVNLDAEFRHDSGC-Eu:X=ε-amino-n-capronic acid, Eu=Europium cryptate) and 1 μL of recombinant human BACE-1 protein (R&D systems) for 3 h at 30° C. in the 96 well half-area plate (black color plate, Costar). The substrate peptide was synthesized by reacting with Biotin-XSEVNLDAEFRHDSGC (Peptide Institute) and Cryptate TBPCOOH mono SMP (CIS bio international). […] The enzymatic reaction was performed in sodium acetate buffer (50 mM sodium acetate (pH5.0), 0.008% Triton X-100). After the reaction, a 50 μL of 8.0 μg/mL Streptavidin-XL665 (CIS bio international) dissolved in phosphate buffer (150 mM K2HPO4—KH2PO4 (pH 7.0), 0.008% Triton X-100, 0.8 M KF) was add to each well and incubated for 1 h at 30° C.

[1] = fluorescence-quenched peptide substrate 18 nM, BACE-1 7.4 nM
[2] = recombinant human BACE-1 protein

Sequence of recombinant human BACE-1 protein (P56817 46-501): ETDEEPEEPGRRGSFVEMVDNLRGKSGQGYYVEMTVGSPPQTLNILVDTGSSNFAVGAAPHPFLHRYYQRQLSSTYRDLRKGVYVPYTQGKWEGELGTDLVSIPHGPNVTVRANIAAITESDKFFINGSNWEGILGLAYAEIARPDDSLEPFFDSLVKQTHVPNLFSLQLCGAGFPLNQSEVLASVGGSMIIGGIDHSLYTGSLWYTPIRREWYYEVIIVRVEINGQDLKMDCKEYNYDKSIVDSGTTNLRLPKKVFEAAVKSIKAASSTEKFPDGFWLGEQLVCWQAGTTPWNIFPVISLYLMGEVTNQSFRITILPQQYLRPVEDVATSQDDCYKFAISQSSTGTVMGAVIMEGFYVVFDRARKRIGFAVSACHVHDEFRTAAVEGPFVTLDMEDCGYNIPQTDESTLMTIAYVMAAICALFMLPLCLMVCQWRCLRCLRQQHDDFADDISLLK

| Structure (SMILES) | IC50 [1] | IC50 [2] |
| --- | --- | --- |
| C/C(=N\OCc1ccccc1)c1cccc(C2(C)CCSC(N)=N2)c1 (stereo not shown) [Compound 620] | < 100 µM | – |
| Cc1ccc2[nH]c(C(=O)Nc3cccc(C4(C)CCSC(N)=N4)c3)cc2c1 (stereo not shown) [Compound 629] | < 100 µM | – |
| CC1(c2ccc(F)c(NC(=O)c3ccccn3)c2)CCSC(N)=N1 (stereo not shown) [Compound 637] | < 100 µM | – |
| Cc1ccc(NC(=O)COc2cccc(C3(C)CCSC(N)=N3)c2)cc1O (stereo not shown) [Compound 639] | – | 7.9 µM |
| CC1(c2cccc(NC(=O)c3ncc(Cl)cc3Cl)c2)CCSC(N)=N1 (stereo not shown) [Compound 646] | < 100 µM | – |
| CC1(c2cccc(NC(=O)c3ccc4nonc4c3)c2)CCSC(N)=N1 (stereo not shown) [Compound 652] | < 100 µM | – |
| COCc1cc(NC(=O)c2ccc(C(F)(F)F)cc2)cc(C2(C)CCSC(N)=N2)c1 (stereo not shown) [Compound 660] | – | 4.59 µM |
| CCn1nc(C)cc1C(=O)Nc1ccc(F)c(C2(C)CCSC(N)=N2)c1 (stereo not shown) [Compound 661] | < 100 µM | – |
| COCc1cc(NC(=O)c2ccc(OC(F)(F)F)cc2)cc(C2(C)CCSC(N)=N2)c1 (stereo not shown) [Compound 664] | – | 3.64 µM |
| CC1(c2cccc(C(=O)Nc3nncs3)c2)CCSC(N)=N1 (stereo not shown) [Compound 671] | < 100 µM | – |
| CC1(c2cccc(CCC(=O)Nc3ccc(F)cc3)c2)CCSC(N)=N1 (stereo not shown) [Compound 677] | < 100 µM | – |
| CC1(c2cccc(Nc3nc4ccccc4[nH]3)c2)CCSC(N)=N1 (stereo not shown) [Compound 681] | < 100 µM | – |
| CC1(c2cccc(NC(=O)c3cccc(I)c3)c2)CCSC(N)=N1 (stereo not shown) [Compound 691] | < 100 µM | – |
| CC1(c2cc(Cl)cc(NC(=O)c3ccc(Br)cc3)c2)CCSC(N)=N1 (stereo not shown) [Compound 698] | – | 0.165 µM |
| CC1(c2cccc(C(=O)Nc3nc4ccccc4s3)c2)CCSC(N)=N1 (stereo not shown) [Compound 708] | < 100 µM | – |
| CC1(c2cccc(NC(=O)c3ccccc3C#N)c2)CCSC(N)=N1 (stereo not shown) [Compound 711] | < 100 µM | – |
| Cc1ccc(CO/N=C/c2cccc(C3(C)CCSC(N)=N3)c2)cc1 (stereo not shown) [Compound 719] | < 100 µM | – |
| CC1(c2cccc(OCC(=O)Nc3ccc(Cl)c4ccccc34)c2)CCSC(N)=N1 (stereo not shown) [Compound 723] | < 100 µM | – |
| CC1(c2cc(NC(=O)c3ccco3)cc(-c3ccc(Cl)cc3)c2)CCSC(N)=N1 (stereo not shown) [Compound 725] | < 100 µM | – |
| CC1(c2cccc(NC(=O)c3ccc([N+](=O)[O-])cn3)c2)CCSC(N)=N1 (stereo not shown) [Compound 730] | < 100 µM | – |
| CC1=NC(C)(c2cccc(CCC(=O)Nc3ccccc3)c2)CCS1 (stereo not shown) [Compound 732] | < 100 µM | – |
| CC1(c2cc(Cl)cc(NC(=O)c3ccc(Cl)cn3)c2)CCSC(N)=N1 (stereo not shown) [Compound 739] | – | 0.049 µM |
| Cc1ccc(NC(=O)COc2cccc(C3(C)CCSC(N)=N3)c2)cc1 (stereo not shown) [Compound 746] | < 100 µM | – |
| CC1(c2cccc(NCc3ccc(Cl)cc3)c2)CCSC(N)=N1 (stereo not shown) [Compound 753] | – | 5.6 µM |
| CC1(c2cccc(NC(=O)c3ccc(-c4ccccc4)cc3)c2)CCSC(N)=N1 (stereo not shown) [Compound 761] | < 100 µM | – |

| Structure (SMILES) | IC50 [1] | IC50 [2] |
| --- | --- | --- |
| CC1(c2cccc(NC(=O)c3cc([N+](=O)[O-])ccn3)c2)CCSC(N)=N1 (stereo not shown) [Compound 770] | < 100 µM | – |
| CC1(c2cccc(NC(=O)c3cc(Cl)cc(Cl)c3)c2)CCSC(N)=N1 (stereo not shown) [Compound 775] | < 100 µM | – |
| COc1ccc(C(=O)Nc2cccc(C3(C)CCSC(N)=N3)c2)nc1 (stereo not shown) [Compound 781] | < 100 µM | – |
| CC1(c2cc(Br)cc(NC(=O)c3ccco3)c2)CCSC(N)=N1 (stereo not shown) [Compound 786] | – | 0.156 µM |
| CCn1c2ccccc2c2cc(NC(=O)COc3cccc(C4(C)CCSC(N)=N4)c3)ccc21 (stereo not shown) [Compound 787] | < 100 µM | – |
| CC1(c2cccc(NC(=O)c3cc(CCCO)on3)c2)CCSC(N)=N1 (stereo not shown) [Compound 788] | < 100 µM | – |
| COc1ccc(NC(=O)/C=C/c2cccc(C3(C)CCSC(N)=N3)c2)cc1 (stereo not shown) [Compound 790] | < 100 µM | – |
| CC1(c2cccc(NC(=O)c3cncs3)c2)CCSC(N)=N1 (stereo not shown) [Compound 791] | < 100 µM | – |
| CC(=O)Nc1ccc(C(=O)Nc2cccc(C3(C)CCSC(N)=N3)c2)nc1 (stereo not shown) [Compound 792] | < 100 µM | – |
| CC1(c2cccc(NC(=O)c3ccc4c(c3)OCO4)c2)CCSC(N)=N1 (stereo not shown) [Compound 796] | < 100 µM | – |
| CC1(c2cccc(NC(=O)c3ccc(NCc4ccccn4)cn3)c2)CCSC(N)=N1 (stereo not shown) [Compound 797] | < 100 µM | – |
| CC1(c2ccc(F)c(NC(=O)c3ccc4ccccc4n3)c2)CCSC(N)=N1 (stereo not shown) [Compound 799] | – | 6.7 µM |
| Cc1cc(Cl)cnc1C(=O)Nc1cccc(C2(C)CCSC(N)=N2)c1 (stereo not shown) [Compound 802] | < 100 µM | – |
| CCCCNC(=O)c1ccc(C2(C)CCSC(N)=N2)s1 (stereo not shown) [Compound 803] | < 100 µM | – |
| CC1(c2cccc(NC(=O)CCc3ccccc3)c2)CCSC(N)=N1 (stereo not shown) [Compound 808] | < 100 µM | – |
| CCOc1ccc(NC(=O)COc2cccc(C3(C)CCSC(N)=N3)c2)cc1 (stereo not shown) [Compound 809] | < 100 µM | – |
| CC1(c2cccc(NC(=O)CCNC(=O)c3ccc(F)cn3)c2)CCSC(N)=N1 (stereo not shown) [Compound 816] | < 100 µM | – |
| CC1(c2cccc(NC(=O)c3ccc(C#N)nc3)c2)CCSC(N)=N1 (stereo not shown) [Compound 819] | < 100 µM | – |
| CC1(c2cc(NC(=O)c3ncc(Cl)cc3N)ccc2F)CCSC(N)=N1 (stereo not shown) [Compound 820] | < 100 µM | – |
| CC1(c2cc(Cl)cc(NC(=O)c3ccco3)c2)CCSC(N)=N1 (stereo not shown) [Compound 822] | – | 0.243 µM |
| CC1(c2cccc(OCC(=O)Nc3nccs3)c2)CCSC(N)=N1 (stereo not shown) [Compound 824] | < 100 µM | – |
| CC1(c2cc(Cl)cc(NC(=O)c3cc4ccccc4s3)c2)CCSC(N)=N1 (stereo not shown) [Compound 832] | – | 0.222 µM |
| CC1(c2cccc(OCCc3ccccc3)c2)CCSC(N)=N1 (stereo not shown) [Compound 833] | < 100 µM | – |
| CC1(c2cc(NC(=O)c3ccc(F)cn3)cc(S(C)(=O)=O)c2)CCSC(N)=N1 (stereo not shown) [Compound 836] | < 100 µM | – |
| CSc1ncccc1C(=O)Nc1cccc(C2(C)CCSC(N)=N2)c1 (stereo not shown) [Compound 847] | < 100 µM | – |

| Structure (SMILES) | IC50 [1] | IC50 [2] |
| --- | --- | --- |
| CC1(c2cccc(NC(=O)c3ccc(F)nc3)c2)CCSC(N)=N1 (stereo not shown) [Compound 850] | < 100 µM | – |
| CC1(c2cccc(NC(=O)C(Cl)Cl)c2)CCSC(N)=N1 (stereo not shown) [Compound 861] | < 100 µM | – |
| CC1(c2cccc(NC(=O)c3ccc(Cl)nc3Cl)c2)CCSC(N)=N1 (stereo not shown) [Compound 865] | < 100 µM | – |
| CC1(c2cccc(NC(=O)C(=O)Nc3ccc(Cl)cn3)c2)CCSC(N)=N1 (stereo not shown) [Compound 866] | < 100 µM | – |
| Cc1ccc(CCNc2cccc(C3(C)CCSC(N)=N3)c2)cc1 (stereo not shown) [Compound 876] | < 100 µM | – |
| CC1(c2cccc(NC(=O)Nc3ccc(Br)cc3)c2)CCSC(N)=N1 (stereo not shown) [Compound 887] | < 100 µM | – |
| CC1(c2cc(NC(=O)c3cc[nH]n3)ccc2F)CCSC(N)=N1 (stereo not shown) [Compound 893] | < 100 µM | – |
| CC1(c2cccc(NC(=O)c3cc(CO)on3)c2)CCSC(N)=N1 (stereo not shown) [Compound 894] | < 100 µM | – |
| COCc1cc(NC(=O)c2ccc(F)cc2)cc(C2(C)CCSC(N)=N2)c1 (stereo not shown) [Compound 896] | – | 8.5 µM |
| CC1(c2cccc(NC(=O)c3ccc(OC(F)F)cc3)c2)CCSC(N)=N1 (stereo not shown) [Compound 905] | < 100 µM | – |
| COc1cnc(C(=O)Nc2cccc(C3(C)CCSC(N)=N3)c2)c(N)n1 (stereo not shown) [Compound 906] | < 100 µM | – |
| Cc1cccc2cc(C(=O)Nc3cccc(C4(C)CCSC(N)=N4)c3)[nH]c12 (stereo not shown) [Compound 908] | < 100 µM | – |
| COc1ccc(CC(=O)NCc2cccc(C3(C)CCSC(N)=N3)c2)cc1 (stereo not shown) [Compound 910] | < 100 µM | – |
| CC1(c2cccc(NC(=O)c3nc4ccccc4s3)c2)CCSC(N)=N1 (stereo not shown) [Compound 912] | – | 0.175 µM |
| CCc1ccc(C(=O)Nc2cccc(C3(C)CCSC(N)=N3)c2)cc1 (stereo not shown) [Compound 919] | < 100 µM | – |
| CC1(c2cccc(OCC(=O)Nc3nc4ccccc4s3)c2)CCSC(N)=N1 (stereo not shown) [Compound 922] | < 100 µM | – |
| CCc1cc(NC(=O)c2ccc(C)cc2)cc(C2(C)CCSC(N)=N2)c1 (stereo not shown) [Compound 928] | < 100 µM | – |
| CC1(c2cccc(NC(=O)c3cccc(Cl)c3F)c2)CCSC(N)=N1 (stereo not shown) [Compound 932] | < 100 µM | – |
| CCOC(=O)C#Cc1cccc(C2(C)CCSC(N)=N2)c1 (stereo not shown) [Compound 933] | < 100 µM | – |
| CC1(c2cc(NC(=O)c3cc4cc(OC(F)(F)F)ccc4[nH]3)ccc2F)CCSC(N)=N1 (stereo not shown) [Compound 939] | < 100 µM | – |
| CCN(C(=O)c1ccc(Cl)cn1)c1cccc(C2(C)CCSC(N)=N2)c1 (stereo not shown) [Compound 941] | < 100 µM | – |
| COc1ccc(NC(=O)C(F)(F)Oc2cccc(C3(C)CCSC(N)=N3)c2)cc1 (stereo not shown) [Compound 944] | < 100 µM | – |
| CC1(c2cc(F)cc(NC(=O)c3ncccc3C(N)=O)c2)CCSC(N)=N1 (stereo not shown) [Compound 947] | < 100 µM | – |
